Reference: patent US20250084371A1, “CELL MONOLAYER BLOCKING AGENTS AND USES THEREOF” (LUMICKS CA HOLDING B.V., priority 2021, published 2025)

Experiments:
Raji cells [1] = experiment: Avidity of UNT or FMC63-CAR Jurkat cells to Raji seeded PLL-coated chips after blocking; format: cell-based; details: for percentage of effector cells bound to the target cells at the end of the force ramp (1000 pN) / difference in the positive/negative window: PLL; for percentage of effector cells bound to the target cells at the end of the force ramp (1000 pN): mean n=2; for difference in the positive/negative window: CAR minus UNT bound at 1000 pN, Raji; for binding of the CAR sample (cells bound) after blocking: FMC63 CAR Jurkat, from about 80% without blocking; for binding of the CAR sample (cells bound) after blocking / background binding of the UNT sample (cells bound) after blocking: Raji-seeded PLL chips; for background binding of the UNT sample (cells bound) after blocking: UNT Jurkat, from about 50% without blocking
Protocol: (§1) z-Movi® chips (obtained and as available from LUMICKS (<https://lumicks.com/products/z-movi-cell-interaction-studies/>) were coated with Poly-L-Lysine (#P4707-50ML, Sigma) diluted 1:5 in PBS for 10 minutes at room temperature, or with human Fibronectin (#F0895, Sigma) at 0.1 mg/mL overnight at room temperature. The following day the target cells were seeded in serum free RPMI medium, incubated 1 h, and subsequently the medium replaced with complete RPMI medium. The chips were incubated for an additional hour before the blocking reaction. The effector cells were stained with CellTrace™ Far Red dye (Thermo Fisher Scientific) at 1 μM for 15 minutes in PBS at 37° C., then resuspended at 10 million/mL in complete medium and used for the avidity experiments. The stained effector cells (i.e. cells of interest) were introduced in the target cell-seeded flow cell, incubated for 5 minutes, and then a 1 to 1000 pN force ramp was applied throughout 2.5 minutes using z-Movi® operated with the Oceon V1.2 software. At the end of the avidity measurements, the monolayer was stained with a Trypan Blue solution to qualitatively assess the target cell viability. The avidity experiment analysis was performed using Oceon V1.2.
(§2) The MS(PEG)4 or BS(PEG)5 (Thermo Fisher Scientific) (see FIG. 2) were dissolved in anhydrous DMSO (Merck) then diluted in PBS to obtain a final concentration of 5 mM or as otherwise indicated. The target cell-seeded chips (or coated only with PLL or fibronectin) were rinsed with PBS before introducing the blocking solution (or a PBS solution with DMSO as control sample). The chips were incubated for 15 minutes at room temperature and the reaction was stopped with TBS (50 mM Tris pH7.4, 150 mM NaCl). The chips were subsequently equilibrated with complete medium and used for avidity measurements. Furthermore, blocking was also tested with incubations of 1 hour with serum free RPMI medium, 20% fetal bovine serum (FBS), 50% FBS, 50% human serum (HS), 10% bovine serum albumin (BSA), NALM6 condition medium.
We next validated the use of NHS-based blockers to reduce background binding of the effector cells in the presence of the monolayer. We used as cells of interest a Jurkat cell line transduced to express the FMC63 Chimeric Antigen Receptor (CAR) or untransduced (UNT) as control cells. As target cells we used the Raji cell line, endogenously expressing the CD19 antigen, seeded on PLL coated chips.

Raji cells [2] = experiment: Monolayer integrity/viability (Trypan Blue) of Raji seeded PLL-coated chips after blocking; format: cell-based; details: Raji on PLL, vs DMSO vehicle
Protocol: as §1, with “V1.2. […]” for “V1.2.”

Raji cells [3] = experiment: Avidity of UNT or FMC63-CAR primary T cells to Raji seeded PLL-coated chips after blocking; format: cell-based
Protocol: Untransduced or FMC63-transduced primary CAR T cells were obtained from ProMab Biotechnologies Inc. (Anti-CD19-TF-CD28-CD3z (PMC-152)) propagated with CD3/CD28 dynabeads (Thermo Fisher Scientific) and 90 IU/mL of IL-2 (Miltenyi Biotec), or Untransduced or FMC63 CAR transduced Jurkat were used (Creative Biolabs).
as §1, §2
We then performed the experiments with the blocking agents with primary T cells expressing a FMC63 CAR (or not) layered on Raji cells. We observed that the observations made with Jurkat cells were recapitulated showing a considerable improvement of the negative/positive window on the chips subjected to the blocking reaction (FIG. 7).

Hela-CD19 cells [4] = experiment: Avidity of UNT or FMC63-CAR Jurkat to Hela-CD19 seeded PLL-coated chips after blocking; format: cell-based; details: Hela-CD19 on PLL, blocker 5 mM; for percentage of effector cells bound to the target cells at the end of the force ramp (1000 pN): mean n=2
Protocol: as §1
as §2, with “medium. […]” for “medium.”

Hela-CD19 cells [5] = experiment: Avidity of UNT or FMC63-CAR Jurkat to Hela-CD19 seeded fibronectin-coated chips after blocking; format: cell-based; details: Hela-CD19 on human fibronectin, blocker 5 mM; for percentage of effector cells bound to the target cells at the end of the force ramp (1000 pN): mean n=2
Protocol: as §1
as §2, with “medium. […]” for “medium.”

CD69 activation marker = experiment: CD69 activation assay, Jurkat co-incubated with blocked Raji cells; format: cell-based; details: 1:1, 4 h
Protocol: Target cells were treated with DMSO or blocking agent using the protocol above, resuspended at 1 million/mL in RPMI complete medium and mixed at 1:1 ratio with the indicated effector cells. For the IFNγ release assay the samples were incubated for 7 h in the incubator before spinning down and use of the supernatant to perform the ELISA (Biolegend, ELISA MAX™ Deluxe Set Human IFNγ). […]

Raji cells [6] = experiment: Avidity of UNT or FMC63-CAR primary T cells to Raji covalent monolayer on PLL-coated chips; format: cell-based; details: 10 mM crosslinker, mean n=2
Protocol: Untransduced or FMC63-transduced primary CAR T cells were obtained from ProMab Biotechnologies Inc. (Anti-CD19-TF-CD28-CD3z (PMC-152)) propagated with […] CD3/CD28 dynabeads (Thermo Fisher Scientific) and 90 IU/mL of IL-2 (Miltenyi Biotec). Raji cells were used as target cells. Primary CAR-T cells were cultured in RPMI+Glutamax supplemented with 50 μM β-Mercaptoethanol, 5% heat inactivated human serum, and Penicillin-Streptomycin.
z-Movi® chips (obtained and as available from LUMICKS) were coated with Poly-L-Lysine (#P4707-50ML, Sigma) diluted 1:5 in PBS for 10 minutes at room temperature. The following day the target cells were seeded in PBS, incubated 0.75 h, and subsequently the monolayers were left untreated or reacted with BS(PEG)9. For negative control the PLL coated chips were reacted with 5 mM MS(PEG)4 before seeding the Raji cells. The effector cells were stained with CellTrace™ Far Red dye (Thermo Fisher […] Scientific) at 1 μM for 15 minutes in PBS at 37° C., then resuspended at 10 million/mL in complete medium and used for the avidity experiments. The stained effector cells (i.e. cells of interest) were introduced in the target cell-seeded flow cell, incubated for 5 minutes, and then a 1 to 1000 pN force ramp was applied throughout 2.5 minutes using z-Movi® operated with the Oceon® V1.2 software. […]

PLL-coated chips = experiment: Binding of Jurkat cells to PLL-coated chips after blocking (z-Movi avidity, no target cells); format: cell-based
Protocol: as §1, with “V1.2. […]” for “V1.2.”

[7] = tested on: human fibronectin-coated chips; experiment: Binding of Jurkat cells to human fibronectin-coated chips after blocking (z-Movi avidity, no target cells); format: cell-based
Protocol: as §1, with “V1.2. […]” for “V1.2.”

IFNγ = IFNγ release assay (ELISA), primary T cells co-incubated with blocked Raji cells; format: cell-based, human; details: 1:1, 7 h
Protocol: Target cells were treated with DMSO or blocking agent using the protocol above, resuspended at 1 million/mL in RPMI complete medium and mixed at 1:1 ratio with the indicated effector cells. For the IFNγ release assay the samples were incubated for 7 h in the incubator before spinning down and use of the supernatant to perform the ELISA (Biolegend, ELISA MAX™ Deluxe Set Human IFNγ). For the CD69 assay, the target and effector cells prepared as described above were co-incubated for 5 h in the incubator before being stained using anti-CD3 and anti-CD69 antibodies (clone SK7 and FN50, Biolegend).

[8] = CAR Jurkat + Raji treated with 5 mM blocker 15 minutes
[9] = UNT Jurkat + Raji treated with 5 mM blocker 15 minutes

COCCOCCOCCOCCC(=O)ON1C(=O)CCC1=O [MS(PEG)4]
percentage of effector cells bound to the target cells at the end of the force ramp (1000 pN) (Raji cells [1]; CAR (FMC63-transduced) effector cells + Raji, blocker 5 mM): 84.7%
difference in the positive/negative window (Raji cells [1]; blocker 5 mM): 51.9%
binding of the CAR sample (cells bound) after blocking (Raji cells [1]): about 70%
percentage of effector cells bound to the target cells at the end of the force ramp (1000 pN) (Raji cells [1]; UNT (untransduced) effector cells + Raji, blocker 5 mM): 32.8%
background binding of the UNT sample (cells bound) after blocking (Raji cells [1]): about 20%
monolayer integrity (confluency, cell morphology, staining) (Raji cells [2]; blocker 5 mM): No differences in target cell monolayer confluency, cell morphology or staining could be detected
percentage of effector cells bound to the target cells at the end of the force ramp (1000 pN) (Raji cells [3]; CAR primary T cells + Raji, mean n=3 (FIG. 7B)): 67.8%
percentage of effector cells bound to the target cells at the end of the force ramp (1000 pN) (Raji cells [3]; UNT primary T cells + Raji, mean n=3 (FIG. 7B)): 42.6%
percentage of effector cells bound to the target cells at the end of the force ramp (1000 pN) (Hela-CD19 cells [4]; CAR Jurkat): 68%
pos/neg window after the blocking reaction (Hela-CD19 cells [4]; control window 49.4%): 63%
percentage of effector cells bound to the target cells at the end of the force ramp (1000 pN) (Hela-CD19 cells [4]; UNT Jurkat): 5%
percentage of effector cells bound to the target cells at the end of the force ramp (1000 pN) (Hela-CD19 cells [5]; CAR Jurkat): 70.1%
pos/neg window after the blocking reaction (Hela-CD19 cells [5]; control window 33.3%): 53.3%
percentage of effector cells bound to the target cells at the end of the force ramp (1000 pN) (Hela-CD19 cells [5]; UNT Jurkat): 16.8%
percentage of CD69 positive cells (CD69 activation marker; [8]): 27%
percentage of CD69 positive cells (CD69 activation marker; [9]): 0.8%

O=C(CCOCCOCCOCCOCCOCCOCCOCCOCCOCCC(=O)ON1C(=O)CCC1=O)ON1C(=O)CCC1=O [BS(PEG)9]
percentage of effector cells bound to the target cells at the end of the force ramp (1000 pN) (Raji cells [6]; CAR primary T cells + Raji): 61.4%
percentage of effector cells bound to the target cells at the end of the force ramp (1000 pN) (Raji cells [6]; UNT primary T cells + Raji): 10.3%

O=C(CCOCCOCCOCCOCCOCCC(=O)ON1C(=O)CCC1=O)ON1C(=O)CCC1=O [BS(PEG)5]
percentage of Jurkat cells bound at the end (1000 pN) of the avidity measurement (PLL-coated chips; blocking agent 1 mM): 92.9%
percentage of Jurkat cells bound at the end (1000 pN) of the avidity measurement (PLL-coated chips; blocking agent 5 mM): 1.2%
percentage of bound Jurkat cells at the end of the force ramp (1000 pN) ([7]; blocking agent 1 mM): 52.8%
percentage of bound Jurkat cells at the end of the force ramp (1000 pN) ([7]; blocking agent 5 mM): 43.2%
percentage of effector cells bound to the target cells at the end of the force ramp (1000 pN) (Raji cells [1]; CAR (FMC63-transduced) effector cells + Raji, blocker 4.5 mM): 78.3%
difference in the positive/negative window (Raji cells [1]; blocker 4.5 mM): 62.7%
binding of the CAR sample (cells bound) after blocking (Raji cells [1]): about 70%
percentage of effector cells bound to the target cells at the end of the force ramp (1000 pN) (Raji cells [1]; UNT (untransduced) effector cells + Raji, blocker 4.5 mM): 15.6%
background binding of the UNT sample (cells bound) after blocking (Raji cells [1]): about 20%
monolayer integrity (confluency, cell morphology, staining) (Raji cells [2]; blocker 4.5 mM): No differences in target cell monolayer confluency, cell morphology or staining could be detected
percentage of effector cells bound to the target cells at the end of the force ramp (1000 pN) (Raji cells [3]; CAR primary T cells + Raji, blocker 4.5 mM, mean n=2 (FIG. 7A)): 66.3%
percentage of effector cells bound to the target cells at the end of the force ramp (1000 pN) (Raji cells [3]; UNT primary T cells + Raji, blocker 4.5 mM, mean n=2 (FIG. 7A)): 39.9%
percentage of CD69 positive cells (CD69 activation marker; [8]): 30%
percentage of CD69 positive cells (CD69 activation marker; [9]): 0.6%
amount of IFNγ in co-culture supernatants (IFNγ; CAR primary T cells + Raji treated with 4.5 mM blocker 15 minutes): 1633 pg/mL
amount of IFNγ in co-culture supernatants (IFNγ; UNT primary T cells + Raji treated with 4.5 mM blocker 15 minutes): 11 pg/mL
